Test results taken from article PMC11256326, “Discovery of Heparin Mimetic, Potent, and Selective Inhibitors of Human Clotting Factor XIIIa” (ACS Omega, 2024).
Several values for one entry are separate records, joined by “and”; a condition that tells them apart may be missing. Identical values can stand only once. Like-named read-outs stand apart in the source and are kept apart here. Marks after values point to notes of the source that are not given here.

Legend:
FXIIIa [1] = molecular target: T1, FXIIIa (Homo sapiens, UniProt P00488); assay: bisubstrate, fluorescence-based trans-glutamination assay; assay type: biochemical; conditions: for HS (Hill slope), FXIIIa inhibition: logistic fit eq 1; for IC50: pH 7.4, 37 °C, substrates dansylcadaverine and N,N-dimethylcasein
T1 construct: purchased Haematologic Technologies; host or cells: human plasma
T1 sequence (P00488 39-732 limits assumed): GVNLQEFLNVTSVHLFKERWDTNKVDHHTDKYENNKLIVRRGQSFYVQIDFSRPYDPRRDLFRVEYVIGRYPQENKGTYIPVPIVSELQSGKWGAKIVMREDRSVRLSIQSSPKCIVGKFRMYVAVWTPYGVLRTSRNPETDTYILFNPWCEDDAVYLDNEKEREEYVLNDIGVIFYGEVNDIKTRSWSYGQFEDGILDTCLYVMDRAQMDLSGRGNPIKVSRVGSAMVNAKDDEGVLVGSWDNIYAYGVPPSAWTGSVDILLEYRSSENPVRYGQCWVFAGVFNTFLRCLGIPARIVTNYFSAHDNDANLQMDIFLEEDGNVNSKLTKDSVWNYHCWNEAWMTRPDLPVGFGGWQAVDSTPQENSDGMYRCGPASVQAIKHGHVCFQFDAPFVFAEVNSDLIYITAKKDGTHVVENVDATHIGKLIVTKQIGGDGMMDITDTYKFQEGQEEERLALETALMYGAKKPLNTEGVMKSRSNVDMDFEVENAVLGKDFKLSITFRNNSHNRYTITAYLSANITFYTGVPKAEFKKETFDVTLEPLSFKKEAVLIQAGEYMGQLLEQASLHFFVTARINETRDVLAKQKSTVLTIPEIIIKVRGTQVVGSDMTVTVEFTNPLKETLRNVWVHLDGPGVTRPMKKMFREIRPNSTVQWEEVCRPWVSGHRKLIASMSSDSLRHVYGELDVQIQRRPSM
From the text: A series of 27 sulfonated molecules (Figure 3) was screened for inhibition of human FXIIIa using a modified bisubstrate, fluorescence-based trans-glutamination assay, as described earlier.[36],[49] Dansylcadaverine and N,N-dimethylcasein were used as two substrates, which upon FXIIIa-dependence conjugation show a marked increase in fluorescence at 550 nm (λEX = 360 nm). The sulfonated molecules were structurally diverse given their number of anionic groups (mono- (inhibitors 24–27) to octa- (inhibitor 9)), number of building blocks (monomeric (molecules 26–29) to […] (inhibitor 14)), and the nature of the building block of oligomeric derivatives (benzamide derivatives (inhibitors 3–10, 24, and 25), triazine derivatives (inhibitors 11–14), and azo-naphthalene derivatives (molecules 15–22), and ureido-naphthalene derivative (23)) (Figure 3).
To measure the potency and efficacy of these inhibitors, the dose-dependence of FXIIIa inhibition was evaluated using logistic eq 1 (Table 1). The potency of inhibition refers to the IC50 (x-axis), whereas the efficacy refers to the net change in residual FXIIIa activity (ΔY%) (y-axis). Iodoacetamide, a nonselective inhibitor of thiol-containing enzymes, was used as a positive control.
To evaluate the effect of sulfonated molecules on human FXIIIa, a bisubstrate, fluorescence-based trans-glutamination assay was performed as we reported previously.[36],[49] Generally, 1 μL of the sulfonated molecule was diluted with 87 μL of pH 7.4 buffer (50 mM Tris-HCl, 1 mM CaCl2, 100 mM NaCl, and 2 mg/mL N,N-dimethylcasein) and 5 μL dithiothreitol (20 mM) at 37 °C followed by the addition of 2 μL of human FXIIIa (0.3 μM) and incubation for 10 min. The activity of FXIIIa was monitored following the addition of 5 μL of dansylcadaverine (2 mM) by measuring the initial rate of increase in fluorescence emission (λEx. = 360 nm and λEm. = 550 nm). Relative residual FXIIIa activity at each concentration of the inhibitor was calculated from the ratio of FXIIIa activity in the presence and absence of the inhibitor. Logistic eq 1 was used to fit the concentration dependence of residual FXIIIa activity to obtain the potency (IC50) and efficacy (ΔY%) of inhibition. [drawing 1] 1
This equation defines Y as the ratio of residual FXIIIa activity with the inhibitor present compared to its absence. YM represents the maximum possible value of residual FXIIIa activity, while YO denotes the minimum possible value. IC50 signifies the concentration of the inhibitor causing 50% enzyme activity inhibition, and HS represents the Hill slope. Determination of YM, YO, IC50, and HS values is achieved through nonlinear curve fitting of the experimental data.

FXIIIa [2] = molecular target: T1, FXIIIa; design: method as in PLoS One 11(7): e0160189; conditions: ref PLoS One 11(7): e0160189; cited from earlier work
normal human plasma [3] = assay: activated partial thromboplastin time (APTT) of normal human plasma; assay type: biochemical; conditions: normal human plasma, in vitro
Method: (§1) To further evaluate the selectivity as well as the potential toxicity of inhibitors, we studied their effects on the clotting times of normal human plasma as well as their effects on the proliferation of three cell lines. On the one hand, the inhibitors’ effects on activated partial thromboplastin time (APTT) and prothrombin time (PT) were measured, as described earlier under in vitro conditions,[52]−[55] using variable concentrations (0–2000 μM) (Table 3). […] On the other hand, the antiproliferative properties of inhibitors 13 and 16 were evaluated in three cell lines of breast (MCF-7), intestine (CaCo-2), and kidney (HEK-293) (Figure 5B), as described earlier.[56] […] Overall, inhibitor 16 can be considered for further development as a potent, selective, and nontoxic inhibitor of human FXIIIa.
(§2) Clotting times, including activated partial thromboplastin time (APTT) and prothrombin time (PT), were assessed in normal human plasma utilizing the BBL Fibrosystem fibrometer from Becton–Dickinson, as detailed in previous publications.[51]−[54] For the PT assay, thromboplastin-D was dissolved in 4 mL of highly purified water and then warmed to 37 °C. Subsequently, 10 μL of the inhibitor was added to 90 μL of normal human plasma and incubated for 30 s. Following this, 200 μL of prewarmed PT reagent was added, and the clotting time was recorded. In the APTT assay, 10 μL of the inhibitor was combined with 90 μL of normal human plasma and 100 μL of prewarmed APTT reagent (0.2% ellagic acid). After incubation for 4 min at 37 °C, clotting was initiated by adding 100 μL of prewarmed 0.025 M CaCl2, and the clotting time was documented. Multiple concentrations of each molecule were employed in both assays to establish a concentration vs effect curve.

normal human plasma [4] = assay: prothrombin time (PT) of normal human plasma; assay type: biochemical; conditions: in vitro
Method: as §1, §2

Row | SMILES | HS (Hill slope), FXIIIa inhibition (FXIIIa [1]) | IC50 (FXIIIa [1]) | also measured
1 | NC(=O)CI [Iodoacetamide, reference compound] | 0.8 ± 0.2 | ~2.9 µM and 2.9 µM | –
2 | O=c1c(OS(=O)(=O)O)c(-c2ccc(OS(=O)(=O)O)c(OS(=O)(=O)O)c2)oc2cc(OS(=O)(=O)O)cc(OCCOc3cc(-c4oc5cc(OS(=O)(=O)O)cc(OCCOc6cc(OS(=O)(=O)O)cc7oc(-c8ccc(OS(=O)(=O)O)c(OS(=O)(=O)O)c8)c(OS(=O)(=O)O)c(=O)c67)c5c(=O)c4OS(=O)(=O)O)ccc3OS(=O)(=O)O)c12 [compound 1, reference compound] | – | – | fold less potent than inhibitor 16 against FXIIIa (FXIIIa [1]): at least 15 fold; HS (Hill slope), FXIIIa inhibition (FXIIIa [2]): 0.9 ±0.2
3 | O=c1c(OS(=O)(=O)O)c(-c2ccc(OS(=O)(=O)O)c(OS(=O)(=O)O)c2)oc2cc(OS(=O)(=O)O)cc(OCCCOc3cc(-c4oc5cc(OS(=O)(=O)O)cc(OCCCOc6cc(OS(=O)(=O)O)cc7oc(-c8ccc(OS(=O)(=O)O)c(OS(=O)(=O)O)c8)c(OS(=O)(=O)O)c(=O)c67)c5c(=O)c4OS(=O)(=O)O)ccc3OS(=O)(=O)O)c12 [compound 2] | – | – | fold less potent than inhibitor 16 against FXIIIa (FXIIIa [1]): at least 15 fold; HS (Hill slope), FXIIIa inhibition (FXIIIa [2]): 1.1±0.5; IC50 (FXIIIa [2]): 118 ± 50 µM
4 | Cc1ccc(C(=O)Nc2ccc(S(=O)(=O)O)c3cc(S(=O)(=O)O)cc(S(=O)(=O)O)c23)cc1NC(=O)c1cccc(NC(=O)Nc2cccc(C(=O)Nc3cc(C(=O)Nc4ccc(S(=O)(=O)O)c5cc(S(=O)(=O)O)cc(S(=O)(=O)O)c45)ccc3C)c2)c1 [compound 3] | 1.0 ± 0.2 | 77.2 ± 17.1 µM | –
5 | O=C(Nc1cccc(C(=O)Nc2cc(C(=O)Nc3ccc(S(=O)(=O)O)c4cc(S(=O)(=O)O)cc(S(=O)(=O)O)c34)ccc2F)c1)Nc1cccc(C(=O)Nc2cc(C(=O)Nc3ccc(S(=O)(=O)O)c4cc(S(=O)(=O)O)cc(S(=O)(=O)O)c34)ccc2F)c1 [compound 4] | – | > 50 µM | FXIIIa inhibition at the highest concentration tested (FXIIIa [1]): did not inhibit
6 | O=C(Nc1ccc(C(=O)Nc2ccc(C(=O)Nc3ccc(S(=O)(=O)O)c4cc(S(=O)(=O)O)cc(S(=O)(=O)O)c34)cc2)cc1)Nc1ccc(C(=O)Nc2ccc(C(=O)Nc3ccc(S(=O)(=O)O)c4cc(S(=O)(=O)O)cc(S(=O)(=O)O)c34)cc2)cc1 [compound 5] | 1.5 ± 0.8 | – | –
7 | Cc1ccc(C(=O)Nc2ccc(CP(=O)(O)O)cc2CP(=O)(O)O)cc1NC(=O)c1cccc(NC(=O)Nc2cccc(C(=O)Nc3cc(C(=O)Nc4ccc(CP(=O)(O)O)cc4CP(=O)(O)O)ccc3C)c2)c1 [compound 6] | – | > 1000 µM | –
8 | O=C(Nc1cccc(C(=O)Nc2ccc(S(=O)(=O)O)c3cc(S(=O)(=O)O)cc(S(=O)(=O)O)c23)c1)Nc1cccc(C(=O)Nc2ccc(S(=O)(=O)O)c3cc(S(=O)(=O)O)cc(S(=O)(=O)O)c23)c1 [compound 7] | 0.9 ± 0.2 | 162 ± 37.1 µM | –
9 | Cc1ccc(C(=O)Nc2cc(S(=O)(=O)O)cc3ccc(S(=O)(=O)O)cc23)cc1NC(=O)Nc1cc(C(=O)Nc2cc(S(=O)(=O)O)cc3ccc(S(=O)(=O)O)cc23)ccc1C [compound 8] | – | > 50 µM | FXIIIa inhibition at the highest concentration tested (FXIIIa [1]): did not inhibit
10 | O=C(Nc1cc(C(=O)Nc2ccc(S(=O)(=O)O)cc2S(=O)(=O)O)cc(C(=O)Nc2ccc(S(=O)(=O)O)cc2S(=O)(=O)O)c1)Nc1cc(C(=O)Nc2ccc(S(=O)(=O)O)cc2S(=O)(=O)O)cc(C(=O)Nc2ccc(S(=O)(=O)O)cc2S(=O)(=O)O)c1 [compound 9] | 0.9 ± 0.2 | 286 ± 71.5 µM | –
11 | O=C(Nc1cc(C(=O)Nc2ccc(S(=O)(=O)O)cc2)cc(C(=O)Nc2ccc(S(=O)(=O)O)cc2)c1)Nc1cc(C(=O)Nc2ccc(S(=O)(=O)O)cc2)cc(C(=O)Nc2ccc(S(=O)(=O)O)cc2)c1 [compound 10] | – | > 50 µM | FXIIIa inhibition at the highest concentration tested (FXIIIa [1]): did not inhibit
12 | Cc1[nH]n(-c2cc(Cl)c(S(=O)(=O)O)cc2Cl)c(=O)c1/N=N/c1cc(Nc2nc(Cl)nc(Nc3ccc(S(=O)(=O)O)cc3)n2)ccc1S(=O)(=O)O [compound 11] | 0.9 ± 0.2 | 14.7 ± 3 µM | APTT2X (concentration required to double APTT) (normal human plasma [3]): 1102.72 ± 93 ^b μM; PT2X (concentration required to double PT) (normal human plasma [4]): >1667 µM
13 | CN(c1ccc2c(O)c(/N=N/c3ccccc3S(=O)(=O)O)c(S(=O)(=O)O)cc2c1)c1nc(Cl)nc(Nc2cccc(S(=O)(=O)O)c2)n1 [compound 12] | 1.0 ± 0.1 | 23.6 ± 1.5 µM | APTT2X (concentration required to double APTT) (normal human plasma [3]): 2067.59 ± 200 µM
14 | CC(=O)Nc1ccc2cc(S(=O)(=O)O)c(/N=N/c3ccc(S(=O)(=O)CCOS(=O)(=O)O)cc3)c(O)c2c1 [compound 15] | 1.0 ± 0.3 | 16.5 ± 5.3 µM | APTT2X (concentration required to double APTT) (normal human plasma [3]): >1667 µM
15 | O=S(=O)(O)c1ccc(/N=N/c2ccc(/N=N/c3c(O)c(S(=O)(=O)O)cc4cc(S(=O)(=O)O)ccc34)c(S(=O)(=O)O)c2)cc1 [compound 17] | 1.5 ± 0.3 | 15.7 ± 2.1 µM | APTT2X (concentration required to double APTT) (normal human plasma [3]): 681.54 ± 65 µM; PT2X (concentration required to double PT) (normal human plasma [4]): 868.96 ± 91 µM
16 | O=C(Nc1ccc2c(O)cc(S(=O)(=O)O)cc2c1)Nc1ccc2c(O)cc(S(=O)(=O)O)cc2c1 [compound 23] | – | – | FXIIIa inhibition at the highest concentration tested (FXIIIa [1]): did not inhibit
